Test results from ChEMBL document CHEMBL1201862, “PubChem BioAssay data set” (2004).
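Cultured in 96-well plates, cells were exposed to test compound for 48 hours across five concentrations. Here, GI50 denotes the concentration required for 50% inhibition of growth.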 Activity calls are given as the source filed them. Rule as the data show it: active = GI50 up to about 1.1 µM and inactive = higher.

Key:
Assay in all cases: inhibition of tumour cell growth, NCI panel, 48 h
A549 = system: A549
COLO 205 = system: COLO 205
HCC 2998 = system: HCC 2998
HCT-116 = system: HCT-116
HL-60 = system: HL-60
HT-29 = system: HT-29
K562 = system: K562
LOX IMVI = system: LOX IMVI
MDA-N = system: MDA-N
Malme-3M = system: Malme-3M
NCI-H226 = system: NCI-H226
NCI-H522 = system: NCI-H522
NCI/ADR-RES = system: NCI/ADR-RES
RPMI-8226 = system: RPMI-8226
SF-268 = system: SF-268
SK-MEL-28 = system: SK-MEL-28
SK-MEL-2 = system: SK-MEL-2
SR = system: SR
TK-10 = system: TK-10
UACC-257 = system: UACC-257

Row | SMILES | GI50 (A549) | GI50 (COLO 205) | GI50 (HCC 2998) | GI50 (HCT-116) | GI50 (HL-60) | GI50 (HT-29) | GI50 (K562) | GI50 (LOX IMVI) | GI50 (MDA-N) | GI50 (Malme-3M) | GI50 (NCI-H226) | GI50 (NCI-H522) | GI50 (NCI/ADR-RES) | GI50 (RPMI-8226) | GI50 (SF-268) | GI50 (SK-MEL-28) | GI50 (SK-MEL-2) | GI50 (SR) | GI50 (TK-10) | GI50 (UACC-257)
1 | COCN1C(N)=C(C(=O)OC(C)(C)C)C2=CC(=O)C=CC21C (stereo not given) | 18.9 µM (inactive) | 5.01 µM (inactive) | 22.6 µM (inactive) | 7.83 µM (inactive) | 14.4 µM (inactive) | 6.64 µM (inactive) | 4.92 µM (inactive) | 13.6 µM (inactive) | 16.1 µM (inactive) | 9.75 µM (inactive) | 16.8 µM (inactive) | 3.4 µM (inactive) | 25.2 µM (inactive) | 20.4 µM (inactive) | 15.8 µM (inactive) | 20.3 µM (inactive) | 17.3 µM (inactive) | 12.5 µM (inactive) | 13.4 µM (inactive) | 10.6 µM (inactive)
2 | CCOc1cc(NC(C)=O)ccc1C(=O)NN1C(=O)C(Cl)C1c1ccco1 (stereo not given) | 18.7 µM (inactive) | 17.2 µM (inactive) | 16 µM (inactive) | 20.7 µM (inactive) | 18.4 µM (inactive) | 19.1 µM (inactive) | 19.3 µM (inactive) | 3.99 µM (inactive) | 14.4 µM (inactive) | 11.7 µM (inactive) | 18.5 µM (inactive) | 10.6 µM (inactive) | 33.7 µM (inactive) | 18.3 µM (inactive) | 16.1 µM (inactive) | 22.6 µM (inactive) | 18.6 µM (inactive) | 13.9 µM (inactive) | 17.4 µM (inactive) | 15.7 µM (inactive)
3 | COC(=O)c1c(C)cccc1C1CN=NC12Cc1ccccc1C2=O (stereo not given) | > 82.6 µM (inactive) | 60.8 µM (inactive) | > 100 µM (inactive) | 46.2 µM (inactive) | 36.9 µM (inactive) | > 100 µM (inactive) | 37.1 µM (inactive) | 31.2 µM (inactive) | > 100 µM (inactive) | > 45.1 µM (inactive) | > 83.4 µM (inactive) | 43.5 µM (inactive) | 35.1 µM (inactive) | 35.3 µM (inactive) | > 53 µM (inactive) | > 71.1 µM (inactive) | > 100 µM (inactive) | 47.2 µM (inactive) | > 100 µM (inactive) | 36.1 µM (inactive)
4 | O=C1CSC(c2ccccc2O)N1c1nc2cc3sc(N4C(=O)CSC4c4ccccc4O)nc3cc2s1 (stereo not given) | 3.85 µM (inactive) | 3.61 µM (inactive) | > 100 µM (inactive) | 20.7 µM (inactive) | 31.6 µM (inactive) | 20 µM (inactive) | 64.3 µM (inactive) | 24 µM (inactive) | 34.8 µM (inactive) | > 77.3 µM (inactive) | 21 µM (inactive) | 7.06 µM (inactive) | 8.47 µM (inactive) | 32.1 µM (inactive) | > 86.9 µM (inactive) | > 79.1 µM (inactive) | > 100 µM (inactive) | 7.71 µM (inactive) | > 100 µM (inactive) | > 36.3 µM (inactive)
5 | CN1CCN([C@H]2C[C@H]3[C@@H]4CC=C5C[C@@H](N6CCCC6)CC[C@]5(C)[C@H]4CC[C@]3(C)[C@H]2O)CC1 | 37.8 µM (inactive) | 12.6 µM (inactive) | 33.3 µM (inactive) | 22 µM (inactive) | 21.2 µM (inactive) | 8 µM (inactive) | 14.9 µM (inactive) | 19.6 µM (inactive) | 19 µM (inactive) | 19.9 µM (inactive) | > 100 µM (inactive) | > 100 µM (inactive) | > 100 µM (inactive) | 24.9 µM (inactive) | 32.7 µM (inactive) | 20.6 µM (inactive) | > 100 µM (inactive) | < 0.01 µM (active) | > 100 µM (inactive) | 23.2 µM (inactive)
6 | Cc1ccccc1NC(=O)O/N=C(\Cl)C(C)C | 19.1 µM (inactive) | 1.75 µM (inactive) | 17.3 µM (inactive) | 2.18 µM (inactive) | 2.46 µM (inactive) | 5.56 µM (inactive) | 1.46 µM (inactive) | 1.55 µM (inactive) | 2.72 µM (inactive) | 2.36 µM (inactive) | 16 µM (inactive) | 1.68 µM (inactive) | 16.5 µM (inactive) | 1.86 µM (inactive) | 19.3 µM (inactive) | 2.4 µM (inactive) | 17.8 µM (inactive) | 2.85 µM (inactive) | 3.94 µM (inactive) | 14.9 µM (inactive)
